In US9944677B2, “Selective inhibitor of angiotensin II” (GEORGETOWN UNIVERSITY, priority 2013, dated 2018):
Ends that are not written are not given here.

Tested on: rats
Assay: Behavioral arousal, locomotion and grooming behavior
Details: rat, in vivo

Effect on behavioral arousal, locomotion and grooming behavior: did not have an effect
Substance: MAGILSG [PEP7, MAGILSG (SEQ ID NO: 1)]
